Columns and labels:
Assay type in all cases: toxicity, cell-based
HEK-293T = assay: Incucyte cell viability with HEK293T; settings: human, 10 µM, compound concentration 10 uM
Fibroblast = assay: Incucyte cell viability with human fibroblast; settings: 10 µM, compound concentration 10 uM
U2OS = assay: Incucyte cell viability with U2OS; settings: human, 10 µM, compound concentration 10 uM
Also: unitless GR value; below 1 slowed growth and below 0 cell loss.

| SMILES | Growth Rate (HEK-293T; 6 h, replicate number 1) | Growth Rate (HEK-293T; 6 h, replicate number 2) | Growth Rate (HEK-293T; 12 h, replicate number 1) | Growth Rate (HEK-293T; 12 h, replicate number 2) | Growth Rate (HEK-293T; 18 h, replicate number 2) | Growth Rate (HEK-293T; 24 h, replicate number 2) | Growth Rate (Fibroblast; 12 h, replicate number 1) | Growth Rate (Fibroblast; 12 h, replicate number 2) | Growth Rate (Fibroblast; 18 h, replicate number 1) | Growth Rate (U2OS; 0 h, replicate number 1) | Growth Rate (U2OS; 0 h, replicate number 2) | Growth Rate (U2OS; 6 h, replicate number 1) | Growth Rate (U2OS; 6 h, replicate number 2) | Growth Rate (U2OS; 12 h, replicate number 2) | Growth Rate (U2OS; 18 h, replicate number 1) | Growth Rate (U2OS; 18 h, replicate number 2) | Growth Rate (U2OS; 24 h, replicate number 1) | Growth Rate (U2OS; 24 h, replicate number 2) | Growth Rate (Fibroblast; 24 h, replicate number 2) | Growth Rate (U2OS; 12 h, replicate number 1) | also measured |
| --- | --- | --- | --- | --- | --- | --- | --- | --- | --- | --- | --- | --- | --- | --- | --- | --- | --- | --- | --- | --- | --- |
| CNC1(C)C2CCC(C2)C1(C)C.Cl (configuration not stated) [MECAMYLAMINE HYDROCHLORIDE] | 0.95 | 0.89 | 0.74 | 0.84 | 0.89 | 0.91 | -1 | 0.66 | 0.43 | 0.92 | -0.76 | 1 | 0.24 | 0.97 | 0.93 | 0.64 | 0.98 | 0.73 | – | – | Growth Rate (Fibroblast; 0 h, replicate number 1): 0.75; Growth Rate (Fibroblast; 0 h, replicate number 2): 0.92; Growth Rate (Fibroblast; 6 h, replicate number 1): 0.44 |
| CCCCC(C)(O)C/C=C/[C@H]1[C@H](O)CC(=O)[C@@H]1CCCCCCC(=O)O (some centres not stated) [MISOPROSTOL ACID] | – | – | – | – | – | – | 0.98 | – | 0.86 | – | 0.49 | – | – | 0.94 | – | – | – | – | 0.97 | – | Growth Rate (HEK-293T; 0 h, replicate number 1): -0.42; Growth Rate (HEK-293T; 0 h, replicate number 2): -0.77; Growth Rate (Fibroblast; 0 h, replicate number 1): -1; Growth Rate (Fibroblast; 0 h, replicate number 2): -0.92 |
| O=C(O)[C@]1(Cc2cccc(Nc3nccs3)n2)CC[C@@H](Oc2cccc(Cl)c2F)CC1 [MK-5108] | 0.9 | 0.73 | 0.39 | 0.16 | 0.35 | 0.61 | 0.18 | 0.85 | 0.17 | – | – | 0.98 | 0.59 | 0.14 | 0.21 | 0.25 | 0.37 | 0.47 | 0.2 | 0.56 | Growth Rate (HEK-293T; 0 h, replicate number 1): 0.43; Growth Rate (HEK-293T; 18 h, replicate number 1): 0.47; Growth Rate (HEK-293T; 24 h, replicate number 1): 0.63; Growth Rate (Fibroblast; 0 h, replicate number 2): -1; Growth Rate (Fibroblast; 18 h, replicate number 2): 0.26; Growth Rate (Fibroblast; 24 h, replicate number 1): 0.32 |
| Cn1cc(-c2cnc3ccc4ccc(CS(=O)(=O)NCc5ccccn5)cc4c(=O)c3c2)cn1 [MK-8033] | 0.24 | 0 | 0.39 | 0.34 | 0.63 | 0.78 | – | – | – | – | 0.2 | 0.9 | 0.76 | 0.75 | 0.88 | – | 0.81 | – | – | – | Growth Rate (HEK-293T; 18 h, replicate number 1): 0.56; Growth Rate (HEK-293T; 24 h, replicate number 1): 0.71; Growth Rate (Fibroblast; 0 h, replicate number 1): -1; Growth Rate (Fibroblast; 6 h, replicate number 1): 0.98; Growth Rate (Fibroblast; 6 h, replicate number 2): -0.01 |
| COc1cc(C(=O)O)ncc1C#Cc1ccccc1NS(=O)(=O)c1cccc2c(N(C)C)ccnc12 [MSC-0516] | – | – | – | – | – | – | – | 0.77 | – | – | 0.61 | 0.68 | 0.86 | 0.75 | 0.8 | 0.91 | 0.89 | 0.9 | 0.93 | 0.92 | Growth Rate (HEK-293T; 0 h, replicate number 1): -0.31; Growth Rate (HEK-293T; 0 h, replicate number 2): -0.98; Growth Rate (Fibroblast; 0 h, replicate number 1): -1; Growth Rate (Fibroblast; 6 h, replicate number 2): 0.44; Growth Rate (Fibroblast; 18 h, replicate number 2): 0.99 |
| COc1ccc(OC(=O)N(CC(=O)O)Cc2ccc(OCCc3nc(-c4ccccc4)oc3C)cc2)cc1 [MURAGLITAZAR] | 0.89 | 0.07 | 0.94 | 0.42 | 0.51 | 0.5 | 0.76 | 0.56 | 0.79 | -0.96 | 0.98 | – | 0.71 | 0.94 | – | – | – | 0.87 | 0.97 | – | Growth Rate (HEK-293T; 0 h, replicate number 2): -1; Growth Rate (Fibroblast; 6 h, replicate number 1): 0.85; Growth Rate (Fibroblast; 6 h, replicate number 2): 0.43; Growth Rate (Fibroblast; 18 h, replicate number 2): 0.72 |
| CC(C)N1CCN(Cc2cnc(-c3cc(-c4cccc5[nH]ccc45)cc4[nH]ncc34)o2)CC1 [NEMIRALISIB] | -0.37 | -0.48 | -0.09 | -0.01 | 0.15 | 0.32 | 0.04 | 0.83 | 0.27 | -0.99 | 0.94 | – | 0.36 | 0.64 | – | 0.64 | – | 0.6 | 0.85 | 0.83 | Growth Rate (HEK-293T; 18 h, replicate number 1): 0.26; Growth Rate (HEK-293T; 24 h, replicate number 1): 0.34; Growth Rate (Fibroblast; 6 h, replicate number 1): -0.06; Growth Rate (Fibroblast; 18 h, replicate number 2): 0.75; Growth Rate (Fibroblast; 24 h, replicate number 1): 0.3 |
| FC(F)(F)c1ccc(Nc2ncnc3cc(-c4ncccc4C(F)(F)F)ccc23)cc1 [NGD-8243] | – | – | – | 0.89 | 0.92 | 0.88 | -1 | -0.24 | – | – | – | – | 0.82 | 0.71 | 0.96 | 0.8 | 1 | 0.88 | 0.37 | 0.94 | Growth Rate (Fibroblast; 6 h, replicate number 1): 0.97; Growth Rate (Fibroblast; 6 h, replicate number 2): -1; Growth Rate (Fibroblast; 18 h, replicate number 2): 0.27 |
| CN1CCC[C@H]1c1cccnc1 [NICOTINE] | 0.4 | 0.38 | 0.64 | 0.75 | 0.76 | 0.85 | – | – | – | -0.33 | -1 | 0.16 | 0.24 | 0.66 | – | 0.77 | – | 0.86 | – | – | Growth Rate (HEK-293T; 0 h, replicate number 1): 0.69; Growth Rate (HEK-293T; 18 h, replicate number 1): 0.99; Growth Rate (HEK-293T; 24 h, replicate number 1): 0.93; Growth Rate (Fibroblast; 0 h, replicate number 2): -0.9; Growth Rate (Fibroblast; 6 h, replicate number 2): -0.93 |
| COC(=O)c1ccc2c(c1)NC(=O)/C2=C(\Nc1ccc(N(C)C(=O)CN2CCN(C)CC2)cc1)c1ccccc1 [NINTEDANIB] | -0.42 | – | 0.57 | – | – | – | – | – | – | 0.64 | 0.08 | -0.05 | – | – | 0.97 | – | – | 0.99 | – | – | Growth Rate (Fibroblast; 0 h, replicate number 1): 0.43; Growth Rate (Fibroblast; 0 h, replicate number 2): -0.14; Growth Rate (Fibroblast; 24 h, replicate number 1): 0.4 |
| CCOC(=O)C1=C(C)NC(C)=C(C(=O)OC)C1c1cccc([N+](=O)[O-])c1 (configuration not stated) [NITRENDIPINE] | 0.11 | -0.36 | – | 0.63 | 0.99 | 0.95 | – | – | -0.02 | 0.22 | -0.99 | 0.47 | 0.51 | 0.71 | – | 0.86 | 0.91 | 0.9 | 0.95 | 0.89 | Growth Rate (Fibroblast; 0 h, replicate number 1): -0.46; Growth Rate (Fibroblast; 0 h, replicate number 2): -0.98 |
| CC(C)(O)[C@H]1CC[C@H](Nc2ccc3ncc(-c4cccc(C(F)(F)F)c4)n3n2)CC1 [NUVISERTIB] | -0.61 | -0.3 | -0.5 | -0.3 | -0.12 | -0.02 | -0.53 | -0.72 | -0.46 | -0.52 | – | 0.88 | 0.42 | 0.24 | 0.38 | 0.15 | 0.32 | 0.08 | -0.47 | 0.46 | Growth Rate (HEK-293T; 0 h, replicate number 2): -0.24; Growth Rate (HEK-293T; 18 h, replicate number 1): -0.39; Growth Rate (HEK-293T; 24 h, replicate number 1): -0.27; Growth Rate (Fibroblast; 6 h, replicate number 1): -0.74; Growth Rate (Fibroblast; 6 h, replicate number 2): -0.83; Growth Rate (Fibroblast; 18 h, replicate number 2): -0.6; Growth Rate (Fibroblast; 24 h, replicate number 1): -0.39 |
| CC[C@H]1[C@@H](O)[C@@H]2[C@H](CC[C@]3(C)[C@@H]([C@H](C)CCC(=O)O)CC[C@@H]23)[C@@]2(C)CC[C@@H](O)C[C@@H]12 [OBETICHOLIC ACID] | – | 0.83 | – | 0.96 | – | – | 0.91 | 0.62 | 0.82 | – | – | -0.88 | – | – | – | – | – | – | 0.95 | 0.87 | Growth Rate (HEK-293T; 0 h, replicate number 1): 0.42; Growth Rate (HEK-293T; 0 h, replicate number 2): -0.65; Growth Rate (Fibroblast; 6 h, replicate number 1): 0.39; Growth Rate (Fibroblast; 6 h, replicate number 2): 0.74; Growth Rate (Fibroblast; 18 h, replicate number 2): 0.87; Growth Rate (Fibroblast; 24 h, replicate number 1): 0.9 |
| Cl.NCC(O)c1ccc(O)cc1 (configuration not stated) [OCTOPAMINE HYDROCHLORIDE] | 0.45 | 0.94 | – | – | – | – | – | 0.8 | -0.19 | 0.94 | -0.87 | 0.64 | 0.65 | 0.92 | 0.83 | 0.87 | 0.97 | 0.95 | – | 0.99 | Growth Rate (HEK-293T; 0 h, replicate number 1): 0.76; Growth Rate (HEK-293T; 0 h, replicate number 2): 0.66; Growth Rate (Fibroblast; 6 h, replicate number 2): -0.67 |
